US20260258050A1, “IMMUNOMODULATOR” (HITGEN INC., priority 2023, published 2026)
pIC50: −log10 of the molar value.

Key:
[1] = target: T1, Human IL-17A (Homo sapiens, UniProt Q16552); test: Inhibition of human IL-17A protein-induced GROα/CXCL1 production in HT-29 cells; assay type: cell-based; set-up: purchased R&D 317-ILB; host or cells: added exogenously to HT-29 cells; conditions: 30 ng/mL human IL-17A protein, 48 h, GROα in supernatant by ELISA kit, read-out: Inhibitory IC50 of compounds on HT-29 cell GROα/CXCL1
T1 sequence (Q16552 20-155 limits assumed): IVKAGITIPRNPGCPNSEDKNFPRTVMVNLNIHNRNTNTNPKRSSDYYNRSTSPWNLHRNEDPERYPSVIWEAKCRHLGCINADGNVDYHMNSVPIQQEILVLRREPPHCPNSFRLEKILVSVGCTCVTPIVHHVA
In short: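 Compound dilutions were preincubated 1 h at 37 °C with 30 ng/mL human IL-17A, then added to HT-29 cells (5×10^4/well) for 48 h at 37 °C. GROα in supernatant quantified by ELISA; IC50 for inhibition of its production. Positive control: IL-17A antibody at […].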

[2] = target: T2, Human IL-17AF (Homo sapiens, UniProt Q16552+Q96PD4); test: IL-17AF ELISA (competitive ELISA, IL-17AF/IL-17Ra receptor-ligand binding); conditions: human IL-17AF coated plate, human IL-17Ra, read-out: IC50, inhibitory activity of compounds on human IL-17AF
T2 construct: purchased Sino Biological Inc. CT047-H08H
T2 sequence (Q16552 24-155): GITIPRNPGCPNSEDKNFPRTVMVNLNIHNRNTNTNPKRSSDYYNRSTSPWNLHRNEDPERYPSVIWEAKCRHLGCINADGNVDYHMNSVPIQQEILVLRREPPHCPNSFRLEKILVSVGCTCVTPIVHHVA
T2 sequence (Q96PD4 31-163): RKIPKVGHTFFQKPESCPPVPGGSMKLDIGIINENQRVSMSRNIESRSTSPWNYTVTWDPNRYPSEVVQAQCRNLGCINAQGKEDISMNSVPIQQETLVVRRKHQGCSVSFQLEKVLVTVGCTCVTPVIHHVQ
Protocol: Experiment Example 2 IL-17AF ELISA
The inhibitory effects of human IL-17AF inhibitors on receptor-ligand binding were quantitatively determined by a competitive ELISA.
The ELISA was performed through the following steps.
Human IL-17AF (Sino Biological Inc., Cat #CT047-H08H) was diluted with coating buffer (50 mM PBS, pH 7.4) to reach a concentration of 0.625 μg/ml. 100 μL of the resulting solution was added to each well of a 96-well plate, and the plate was incubated at 37° C. for 30 min. In the blank group, 100 μL of coating buffer was added instead of the IL-17AF solution.
The plate was washed four times with 10 mM PBST (pH 7.4). 200 μL was used per well for each wash. After the final wash, the plate was tapped dry on absorbent paper.
Fresh 5% (w/v) skim milk solution was prepared before the experiment. For example, 5 grams of skim milk powder (Bio-Rad, Cat #170-6404) was completely dissolved in 100 mL of 10 mM PBST. 200 μL of the 5% (w/v) skim milk solution was added to each well, and the plate was incubated on a shaker at 25° C. for 30 min.
(S4) Preparation of 100× to-be-Tested Compound Solutions
During step (S3), the to-be-tested compound solutions were prepared. Each powdered compound was dissolved in dimethyl sulfoxide (DMSO) to reach a stock concentration of 10 mM. The to-be-tested compound solutions were then serially diluted four-fold with DMSO to obtain nine concentrations ranging from […].
(S6) Pre-Incubation of IL-17AF with to-be-Tested Compound Solutions
89 μL of PBST and 1 μL of each of the to-be-tested compound solutions were added to each well and mixed. The plate was pre-incubated at 25° C. for 10 min. In the blank group and the control group, 1 μL of DMSO was added instead of the to-be-tested compound solutions.
(S7) Incubation with Human IL-17Ra
10 μL of 100 nM IL-17Ra (Sino Biological Inc., Cat #10895-H03H) was added to each well, followed by incubation on a shaker at 25° C. for 30 min. The receptor solution was prepared in 10 mM PBST.
(S9) Incubation with Horseradish Peroxidase-Conjugated Antibody
100 μL of mouse anti-Fc tag HRP-conjugated antibody (Sino Biological Inc., Cat #10702-MM01T-H) was added to each well. The plate was incubated on a shaker at 25° C. for 30 min. The antibody was diluted with 5% (w/v) skim milk solution at 1:5,000 (v/v).
100 μL of TMB substrate solution (BD, Cat #555214) was added to each well. Substrate A and substrate B were freshly mixed at a volume ratio of 1:1 before use. The plate was incubated in the dark at 25° C. for 5-15 min.
(S12) Termination and Detection
The color reaction was terminated by addition of 2.5 M HCl. Absorbance was measured at 450 nm using a BMG PHERStar microplate reader.
(S13) Calculation of Half-Maximal Inhibitory Concentration (IC50)
The relative percent residual activity at each compound concentration was calculated according to Equation 1. The IC50 value of each test compound was then calculated in GraphPad 6 using the equation for log(inhibitor) versus normalized response with variable slope, as shown in Equation 2.
relative percent residual activity (%)=[(absorbance of sample−absorbance of blank group)/(absorbance of control group−absorbance of blank group)]%. Equation 1: […]
The compounds prepared in the Examples were tested for IL-17AF inhibitory activity according to the above method.

## Cc1[nH]nc2c1-c1cnc(NC(=O)[C@@H](NC(=O)c3ccnn3C(C)C)C(C3CC3)C3CC3)cc1CN(CC(C)(F)F)CC2 [compound 199]
[1]
  pIC50: ≥ 7.00
[2]
  pIC50: ≥ 7.00

## CCCn1nccc1C(=O)N[C@H](C(=O)Nc1cc2c(cc1F)-c1c(n[nH]c1C)CCOC2)C(C1CC1)C1CC1 [compound 62]
[1]
  pIC50: 6.30 to 7.00
[2]
  pIC50: ≥ 7.00

## Cc1[nH]nc2c1-c1cc(F)c(NC(=O)[C@@H](NC(=O)c3ccnn3C(C)C3CC3)C(C3CC3)C3CC3)cc1COCC2 (single isomer, unassigned) [compound 41a]
[1]
  pIC50: ≥ 7.00
[2]
  pIC50: 6.30 to 7.00

## Cc1[nH]nc2c1-c1ccc(NC(=O)[C@@H](NC(=O)c3ccnn3C(C)C)C(C3CC3)C3CC3)cc1CN(C)C(=O)C2 [compound 22]
[1]
  pIC50: ≥ 7.00
[2]
  pIC50: ≥ 7.00

## Cc1[nH]nc2c1-c1cc(F)c(NC(=O)[C@@H](NC(=O)c3ccnn3CCCF)C(C3CC3)C3CC3)cc1CN(C1CC1)CC2 [compound 218]
[1]
  pIC50: ≥ 7.00
[2]
  pIC50: ≥ 7.00

## Cc1[nH]nc2c1-c1cc(F)c(NC(=O)[C@@H](NC(=O)c3ccnn3C(C)C)C(C3CC3)C3CC3)cc1CN(C(C)C(F)(F)F)C(=O)C2 (single isomer, unassigned) [compound 186a]
[1]
  pIC50: ≥ 7.00
[2]
  pIC50: 6.30 to 7.00

## COCCCn1nccc1C(=O)N[C@H](C(=O)Nc1cc2c(cc1F)-c1c(n[nH]c1C)CCOC2)C(C1CC1)C1CC1 [compound 58]
[1]
  pIC50: 6.30 to 7.00
[2]
  pIC50: ≥ 7.00

## [2H]C([2H])([2H])C([2H])(n1nccc1C(=O)N[C@H](C(=O)Nc1cc2c(cc1F)-c1c(n[nH]c1C)CCOC2)C(C1CC1)C1CC1)C([2H])([2H])[2H] [compound 89]
[1]
  pIC50: ≥ 7.00
[2]
  pIC50: 6.30 to 7.00

## Cc1[nH]nc2c1-c1cnc(NC(=O)[C@@H](NC(=O)c3ccnn3C(C)C)C(C3CC3)C3CC3)cc1CN(CC(F)F)C(=O)C2 [compound 192]
[1]
  pIC50: ≥ 7.00
[2]
  pIC50: ≥ 7.00

## Cc1[nH]nc2c1-c1cc(F)c(NC(=O)[C@@H](NC(=O)c3ccnn3C(C)C)C(C3CC3)C3CC3)cc1CN(C1CCC1)C(=O)C2 [compound 170]
[1]
  pIC50: ≥ 7.00
[2]
  pIC50: ≥ 7.00

## Cc1[nH]nc2c1-c1cnc(NC(=O)[C@@H](NC(=O)c3conc3C3CC3)C(C3CC3)C3CC3)cc1COCC2 [compound 241]
[1]
  pIC50: 6.30 to 7.00
[2]
  pIC50: 6.30 to 7.00

## CCn1nccc1C(=O)N[C@H](C(=O)Nc1ccc2c(c1)CN(C)C(=O)Cc1n[nH]c(C)c1-2)C(C1CC1)C1CC1 [compound 23]
[1]
  pIC50: ≥ 7.00
[2]
  pIC50: ≥ 7.00

## Cc1[nH]nc2c1-c1cc(F)c(NC(=O)[C@@H](NC(=O)c3ccnn3CCOC3CC3)C(C3CC3)C3CC3)cc1COCC2 [compound 102]
[1]
  pIC50: ≥ 7.00
[2]
  pIC50: 6.30 to 7.00

## Cc1[nH]nc2c1-c1cc(F)c(NC(=O)[C@@H](NC(=O)c3ccnn3CCOCC(F)(F)F)C(C3CC3)C3CC3)cc1COCC2 [compound 104]
[1]
  pIC50: ≥ 7.00
[2]
  pIC50: 6.30 to 7.00

## Cc1[nH]nc2c1-c1cc(F)c(NC(=O)[C@@H](NC(=O)c3ccnn3CCC(O)C(F)(F)F)C(C3CC3)C3CC3)cc1COCC2 (stereo partly shown) [compound 81]
[1]
  pIC50: 6.30 to 7.00
[2]
  pIC50: ≥ 7.00

## Cc1[nH]nc2c1-c1cc(F)c(NC(=O)[C@@H](NC(=O)c3ccnn3C(C)CF)C(C3CC3)C3CC3)cc1COCC2 (single isomer, unassigned) [compound 42b]
[1]
  pIC50: 6.30 to 7.00
[2]
  pIC50: ≥ 7.00

## Cc1[nH]nc2c1-c1cc(F)c(NC(=O)[C@@H](NC(=O)c3ccnn3C(C)C3CC3)C(C3CC3)C3CC3)cc1COCC2 (single isomer, unassigned) [compound 41b]
[1]
  pIC50: ≥ 7.00
[2]
  pIC50: ≥ 7.00

## Cc1[nH]nc2c1-c1cc(F)c(NC(=O)[C@@H](NC(=O)c3ccnn3CCC(F)(F)F)C(C3CC3)C3CC3)cc1COCC2 [compound 88]
[1]
  pIC50: ≥ 7.00
[2]
  pIC50: 6.30 to 7.00

## Cc1[nH]nc2c1-c1cnc(NC(=O)[C@@H](NC(=O)c3ccnn3C(C)CF)C(C3CC3)C3CC3)cc1COCC2 (single isomer, unassigned) [compound 189b]
[1]
  pIC50: 6.30 to 7.00
[2]
  pIC50: 6.30 to 7.00

## Cc1[nH]nc2c1-c1cc(F)c(NC(=O)[C@@H](NC(=O)c3ccnn3CCC(F)F)C(C3CC3)C3CC3)cc1COCC2 [compound 65]
[1]
  pIC50: 6.30 to 7.00
[2]
  pIC50: ≥ 7.00

## Cc1[nH]nc2c1-c1cc(F)c(NC(=O)[C@@H](NC(=O)c3ccnn3C(C)C)C3CCCCC3)cc1COCC2 [compound 48]
[1]
  pIC50: 6.30 to 7.00
[2]
  pIC50: 6.30 to 7.00

## Cc1[nH]nc2c1-c1cc(F)c(NC(=O)[C@@H](NC(=O)c3ccnn3C(C)C)C(C3CC3)C3CC3)cc1CN(C1CCOCC1)C(=O)C2 [compound 167]
[1]
  pIC50: ≥ 7.00
[2]
  pIC50: 6.30 to 7.00

## Cc1[nH]nc2c1-c1cnc(NC(=O)[C@@H](NC(=O)c3ccnn3C(C)C3CC3)C(C3CC3)C3CC3)cc1COCC2 (single isomer, unassigned) [compound 188b]
[1]
  pIC50: ≥ 7.00
[2]
  pIC50: 6.30 to 7.00

## CCn1nccc1C(=O)N[C@H](C(=O)Nc1cc2c(cc1F)-c1c(n[nH]c1C)CCOC2)[C@H]1CC[C@H](C)CC1 [compound 46]
[1]
  pIC50: 6.30 to 7.00
[2]
  pIC50: ≥ 7.00

## Cc1[nH]nc2c1-c1cnc(NC(=O)[C@@H](NC(=O)c3ccnn3C(C)CF)C(C3CC3)C3CC3)cc1COCC2 (single isomer, unassigned) [compound 189a]
[1]
  pIC50: ≥ 7.00
[2]
  pIC50: 6.30 to 7.00

## Cc1[nH]nc2c1-c1cc(F)c(NC(=O)[C@@H](NC(=O)c3ccnn3CCCC(F)(F)F)C(C3CC3)C3CC3)cc1COCC2 [compound 84]
[1]
  pIC50: ≥ 7.00
[2]
  pIC50: 6.30 to 7.00

## Cc1[nH]nc2c1-c1cnc(NC(=O)[C@@H](NC(=O)c3ccnn3C(C)C)C(C3CC3)C3CC3)cc1CN(C1CC(F)(F)C1)C(=O)C2 [compound 194]
[1]
  pIC50: ≥ 7.00
[2]
  pIC50: 6.30 to 7.00

## Cc1[nH]nc2c1-c1cnc(NC(=O)[C@@H](NC(=O)c3ccnn3C(C)C)C(C3CC3)C3CC3)cc1CN(C(C)C)C(=O)C2 [compound 195]
[1]
  pIC50: ≥ 7.00
[2]
  pIC50: 6.30 to 7.00

## Cc1[nH]nc2c1-c1ccc(NC(=O)[C@@H](NC(=O)c3ccnn3C)C(C3CC3)C3CC3)cc1COCC2 [compound 2]
[1]
  pIC50: 6.30 to 7.00
[2]
  pIC50: ≥ 7.00

## Cc1[nH]nc2c1-c1cnc(NC(=O)[C@@H](NC(=O)c3conc3C3CC3)C(C3CC3)C3CC3)cc1CN(C1CC1)CC2 [compound 215]
[1]
  pIC50: ≥ 7.00
[2]
  pIC50: ≥ 7.00

## Cc1[nH]nc2c1-c1cnc(NC(=O)[C@@H](NC(=O)c3ccnn3C(C)C)C(C3CC3)C3CC3)cc1CN(C1CC1)CC2 [compound 198]
[1]
  pIC50: ≥ 7.00
[2]
  pIC50: 6.30 to 7.00

## CCc1nocc1C(=O)N[C@H](C(=O)Nc1cc2c(cn1)-c1c(n[nH]c1C)CCN(C1CC1)C2)C(C1CC1)C1CC1 [compound 216]
[1]
  pIC50: ≥ 7.00
[2]
  pIC50: 6.30 to 7.00
